The experiment concerns the target T1, 5-HT transporter (Rattus norvegicus, UniProt P31652).
T1 construct: from tissue; host or cells: rat brain synaptosomes (P2 fraction) from medulla and pons
Put plainly: 5-HT uptake inhibition in rat brain synaptosomes (medulla and pons), [3H]-5-HT. Type of experiment: biochemical. An excerpt: a) Method for Determining Noradrenalin and 5-HT Uptake Inhibition:
Synaptosomes from rat brain regions are freshly isolated for in vitro studies, as described in the publication “The isolation of nerve endings from brain” by E. G. Gray and V. P. Whittaker, J. Anatomy 96, pages 79-88, 1962. The corresponding literature description is hereby introduced as a reference and is deemed to be part of the disclosure.
The tissue (hypothalamus for the determination of noradrenalin uptake inhibition and medulla and pons for the determination of 5-HT uptake inhibition) is homogenised in ice-cooled 0.32 M sucrose (100 mg of tissue/1 mL) in a glass homogeniser with Teflon pestle using five complete up and down strokes at 840 revolutions/minute.
The homogenate is centrifuged at 4° C. for 10 minutes at 1000 g. After subsequent centrifugation at 17000 g for 55 minutes, the synaptosomes (P2 fraction) are obtained, which are resuspended in 0.32 M […] (0.5 mL/100 mg of original weight).
The particular uptake is measured in a 96-well microtitre plate. The volume is 250 μl and the incubation proceeds at room temperature (approx. 20-25° C.) under an O2 atmosphere.
The incubation time is 7.5 minutes for [^3H]-NA and 5 minutes for [^3H]-5-HT. The 96 samples are then filtered through a Unifilter GF/B® microtitre plate (Packard) and washed with 200 mL of incubated buffer using a “Brabdel MPXRI-96T Cell-Harvester”. The Unifilter GF/B plate is dried for 1 hour at 55° C. The plate is then sealed with a Back Seal® (Packard) and 35 μl of scintillation fluid are added per well (Ultima Gold®, Packard). After sealing with a top Seal® (Packard) and establishing an equilibrium (around 5 hours), radioactivity is determined in a “Trilux 1450 Microbeta” (Wallac).
The quantity of protein used in the above determination corresponds to the values known from the literature, as for example described in “Protein measurement with the folin phenol reagent”, Lowry et al., J. Biol. Chem., 193, 265-275, 1951.
A detailed description of the method may additionally be found in the literature, for example in M. Ch. Frink, H.-H. Hennies, W. Engelberger, M. Haurand and B. Wilffert (1996) Arzneim.-Forsch./Drug Res. 46 (III), 11, 1029-1036.

T1 sequence (P31652 whole entry): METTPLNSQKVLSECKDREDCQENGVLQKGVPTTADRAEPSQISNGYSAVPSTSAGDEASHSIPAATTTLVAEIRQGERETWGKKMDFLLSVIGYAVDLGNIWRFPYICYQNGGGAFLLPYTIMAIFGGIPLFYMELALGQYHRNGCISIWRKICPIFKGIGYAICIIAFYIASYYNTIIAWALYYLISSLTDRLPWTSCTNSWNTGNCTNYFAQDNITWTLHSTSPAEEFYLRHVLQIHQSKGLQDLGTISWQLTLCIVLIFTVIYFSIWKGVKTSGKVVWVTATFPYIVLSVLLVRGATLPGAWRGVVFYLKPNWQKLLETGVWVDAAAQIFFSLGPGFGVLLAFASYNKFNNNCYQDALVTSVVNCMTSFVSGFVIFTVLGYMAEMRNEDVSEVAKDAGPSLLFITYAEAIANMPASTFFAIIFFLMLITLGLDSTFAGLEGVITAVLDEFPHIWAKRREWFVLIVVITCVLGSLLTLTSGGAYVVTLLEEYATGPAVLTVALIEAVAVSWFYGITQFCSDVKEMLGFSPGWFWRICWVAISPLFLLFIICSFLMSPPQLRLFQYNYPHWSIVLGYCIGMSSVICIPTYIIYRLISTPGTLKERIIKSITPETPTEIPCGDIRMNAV

Broadly, the inhibition is the percentage by which the read-out fell short of the control. `O=C1OC2(CCN(C(=O)c3ccc(-c4ccccc4)cc3)CC2)CN1Cc1ccc(I)cc1` [Example 118, 8-(biphenyl-4-carbonyl)-3-(4-iodobenzyl)-1-oxa-3,8-diazaspiro[4.5]decan-2-one] returned an inhibition at 10 µM of 66%.

`Cc1cc(C)cc(CN2CC3(CCN(C(=O)c4ccccn4)CC3)OC2=O)c1` [Example 119, 3-(3,5-dimethylbenzyl)-8-(pyridine-2-carbonyl)-1-oxa-3,8-diazaspiro[4.5]decan-2-one]: testing at 10 µM gave an inhibition of 67%.

`O=C1OC2(CCN(C(=O)c3ccc(Cl)nc3)CC2)CN1Cc1ccc2ccccc2c1` [Example 120, 8-(6-chloropyridine-3-carbonyl)-3-naphthalen-2-ylmethyl-1-oxa-3,8-diazaspiro[4.5]decan-2-one] came in with an inhibition at 10 µM of 66%. To `CCSc1ncccc1C(=O)N1CCC2(CC1)CN(Cc1cccc(Br)c1)C(=O)O2` [Example 121, 3-(3-bromobenzyl)-8-(2-ethylsulfanylpyridine-3-carbonyl)-1-oxa-3,8-diazaspiro[4.5]decan-2-one] belongs 77%; to `Cc1cc(C)cc(CN2CC3(CCN(C(=O)c4cc(C)on4)CC3)OC2=O)c1` [Example 122, 3-(3,5-dimethylbenzyl)-8-(5-methylisoxazole-3-carbonyl)-1-oxa-3,8-diazaspiro[4.5]decan-2-one], 68%; to `CCCCC(=O)N1CCC2(CC1)CN(Cc1cc([N+](=O)[O-])ccc1OC)C(=O)O2` [Example 123, 3-(2-methoxy-5-nitrobenzyl)-8-pentanoyl-1-oxa-3,8-diazaspiro[4.5]decan-2-one], 71%.

Consider `Cc1cc(C)cc(CN2CC3(CCN(C(=O)c4ccc(Br)cc4)CC3)OC2=O)c1` [Example 124, 8-(4-bromobenzoyl)-3-(3,5-dimethylbenzyl)-1-oxa-3,8-diazaspiro[4.5]decan-2-one], for which the inhibition at 10 µM was 72%. To `COc1ccc([N+](=O)[O-])cc1CN1CC2(CCN(C(=O)c3cc(C(C)(C)C)oc3C)CC2)OC1=O` [Example 125, 8-(5-tert-butyl-2-methylfuran-3-carbonyl)-3-(2-methoxy-5-nitrobenzyl)-1-oxa-3,8-diazaspiro[4.5]decan-2-one] belongs 63%; to `Cc1cc(C)cc(CN2CC3(CCN(C(=O)c4cccc(Cl)c4)CC3)OC2=O)c1` [Example 126, 8-(3-chlorobenzoyl)-3-(3,5-dimethylbenzyl)-1-oxa-3,8-diazaspiro[4.5]decan-2-one], 64%.

In the case of `CCSc1ncccc1C(=O)N1CCC2(CC1)CN(Cc1ccccc1C(F)(F)F)C(=O)O2` [Example 127, 8-(2-ethylsulfanylpyridine-3-carbonyl)-3-(2-trifluoromethylbenzyl)-1-oxa-3,8-diazaspiro[4.5]decan-2-one], the inhibition at 10 µM amounted to 63%.

For `Cc1cc(C)cc(CN2CC3(CCN(C(=O)c4ccno4)CC3)OC2=O)c1` [Example 128, 3-(3,5-dimethylbenzyl)-8-(isoxazole-5-carbonyl)-1-oxa-3,8-diazaspiro[4.5]decan-2-one], at 10 µM the inhibition was 62%. To `O=C1OC2(CCN(C(=O)c3ccccn3)CC2)CN1Cc1cccc(Br)c1` [Example 129, 3-(3-bromobenzyl)-8-(pyridine-2-carbonyl)-1-oxa-3,8-diazaspiro[4.5]decan-2-one] belongs 77%. `Cc1cc(C)cc(CN2CC3(CCN(C(=O)c4cccs4)CC3)OC2=O)c1` [Example 130, 3-(3,5-dimethylbenzyl)-8-(thiophene-2-carbonyl)-1-oxa-3,8-diazaspiro[4.5]decan-2-one] had an inhibition at 10 µM of 70%. To `Cc1cc(C)cc(CN2CC3(CCN(C(=O)c4ccc(F)c(Cl)c4)CC3)OC2=O)c1` [Example 131, 8-(3-chloro-4-fluorobenzoyl)-3-(3,5-dimethylbenzyl)-1-oxa-3,8-diazaspiro[4.5]decan-2-one] belongs 63%; to `Cc1cc(C)cc(CN2CC3(CCN(C(=O)c4c(F)ccc(C)c4F)CC3)OC2=O)c1` [Example 132, 8-(2,6-difluoro-3-methylbenzoyl)-3-(3,5-dimethylbenzyl)-1-oxa-3,8-diazaspiro[4.5]decan-2-one], 65%. On to `COC(=O)CCC(=O)N1CCC2(CC1)CN(Cc1cccc(Br)c1)C(=O)O2` [Example 133, 4-[3-(3-bromobenzyl)-2-oxo-1-oxa-3,8-diazaspiro[4.5]dec-8-yl]-4-oxobutanoic acid methyl ester], for which the inhibition at 10 µM is 64%. To `CCC(CC)C(=O)N1CCC2(CC1)CN(Cc1cccc(C#N)c1)C(=O)O2` [Example 134, 3-[8-(2-ethylbutyryl)-2-oxo-1-oxa-3,8-diazaspiro[4.5]dec-3-ylmethyl]benzonitrile] belongs 64%; to `N#Cc1cccc(CN2CC3(CCN(S(=O)(=O)Cc4cccc(Br)c4)CC3)OC2=O)c1` [Example 135, 3-[8-(3-bromobenzylsulfonyl)-2-oxo-1-oxa-3,8-diazaspiro[4.5]dec-3-ylmethyl]benzonitrile], 69%; to `Cc1ccc(C(=O)N2CCC3(CC2)CN(Cc2ccc(F)c(F)c2)C(=O)O3)cc1` [Example 136, 3-(3,4-difluorobenzyl)-8-(4-methylbenzoyl)-1-oxa-3,8-diazaspiro[4.5]decan-2-one], 67%.

In the case of `COc1ccc([N+](=O)[O-])cc1CN1CC2(CCN(C(=O)c3cccc(N(C)C)c3)CC2)OC1=O` [Example 138, 8-(3-dimethylaminobenzoyl)-3-(2-methoxy-5-nitrobenzyl)-1-oxa-3,8-diazaspiro[4.5]decan-2-one], testing at 10 µM gave an inhibition of 65%.

Molecule `O=C1OC2(CCN(C(=O)c3c(Cl)cccc3Cl)CC2)CN1Cc1ccccc1F` [Example 139, 8-(2,6-dichlorobenzoyl)-3-(2-fluorobenzyl)-1-oxa-3,8-diazaspiro[4.5]decan-2-one] yielded an inhibition at 10 µM of 70%. In the case of `COc1ccc([N+](=O)[O-])cc1CN1CC2(CCN(C(=O)c3cccnc3Oc3ccccc3)CC2)OC1=O` [Example 140, 3-(2-methoxy-5-nitrobenzyl)-8-(2-phenoxypyridine-3-carbonyl)-1-oxa-3,8-diazaspiro[4.5]decan-2-one] it was 64%; in that of `COc1cccc(CC(=O)N2CCC3(CC2)CN(Cc2ccc4ccccc4c2)C(=O)O3)c1` [Example 141, 8-[2-(3-methoxyphenyl)acetyl]-3-naphthalen-2-ylmethyl-1-oxa-3,8-diazaspiro[4.5]decan-2-one], 78%. In the case of `N#Cc1ccc(CN2CC3(CCN(S(=O)(=O)c4ccc5c(c4)CN(C(=O)C(F)(F)F)CC5)CC3)OC2=O)cc1` [Example 142, 4-{2-oxo-8-[2-(2,2,2-trifluoroacetyl)-1,2,3,4-tetrahydroisoquinoline-7-sulfonyl]-1-oxa-3,8-diazaspiro[4.5]dec-3-ylmethyl}benzonitrile] it was 67%. To `O=C1OC2(CCN(C(=O)c3cc(C(F)(F)F)cc(C(F)(F)F)c3)CC2)CN1Cc1ccc(C(F)(F)F)cc1` [Example 143, 8-(3,5-bis-trifluoromethylbenzoyl)-3-(4-trifluoromethylbenzyl)-1-oxa-3,8-diazaspiro[4.5]decan-2-one] belongs 66%; to `O=C1OC2(CCN(C(=O)c3cccnc3Oc3ccccc3)CC2)CN1Cc1cccc(Br)c1` [Example 144, 3-(3-bromobenzyl)-8-(2-phenoxypyridine-3-carbonyl)-1-oxa-3,8-diazaspiro[4.5]decan-2-one], 81%; to `COc1cccc(CC(=O)N2CCC3(CC2)CN(Cc2cc([N+](=O)[O-])ccc2OC)C(=O)O3)c1` [Example 145, 3-(2-methoxy-5-nitrobenzyl)-8-[2-(3-methoxyphenyl)acetyl]-1-oxa-3,8-diazaspiro[4.5]decan-2-one], 77%. `O=C1OC2(CCN(C(=O)c3cccnc3Oc3ccccc3)CC2)CN1Cc1ccc(F)c(F)c1` [Example 146, 3-(3,4-difluorobenzyl)-8-(2-phenoxypyridine-3-carbonyl)-1-oxa-3,8-diazaspiro[4.5]decan-2-one] showed an inhibition at 10 µM of 63%. To `Cc1cc(C(=O)N2CCC3(CC2)CN(Cc2cccc(C#N)c2)C(=O)O3)ccc1Br` [Example 147, 3-[8-(4-bromo-3-methylbenzoyl)-2-oxo-1-oxa-3,8-diazaspiro[4.5]dec-3-ylmethyl]benzonitrile] belongs 73%.

In turn, `COc1ccc([N+](=O)[O-])cc1CN1CC2(CCN(C(=O)Cc3ccc(OC)c(OC)c3)CC2)OC1=O` [Example 150, 8-[2-(3,4-dimethoxyphenyl)acetyl]-3-(2-methoxy-5-nitrobenzyl)-1-oxa-3,8-diazaspiro[4.5]decan-2-one] yielded an inhibition at 10 µM of 84%.

The record behind these values is patent US8153795B2, “Substituted 1-oxa-3,8-diazaspiro[4.5]-decan-2-one-compounds and the use thereof for producing drugs” (Gruenenthal GmbH, priority 2005, dated 2012).
